Holding throughout (experiment): biochemical
For one assay, the target named is T1, ZmDRIK1-K217-S514 (Zea mays, UniProt C0P4K9).
T1 construct: kinase domain, K217-S514
T1 sequence (C0P4K9 1-514): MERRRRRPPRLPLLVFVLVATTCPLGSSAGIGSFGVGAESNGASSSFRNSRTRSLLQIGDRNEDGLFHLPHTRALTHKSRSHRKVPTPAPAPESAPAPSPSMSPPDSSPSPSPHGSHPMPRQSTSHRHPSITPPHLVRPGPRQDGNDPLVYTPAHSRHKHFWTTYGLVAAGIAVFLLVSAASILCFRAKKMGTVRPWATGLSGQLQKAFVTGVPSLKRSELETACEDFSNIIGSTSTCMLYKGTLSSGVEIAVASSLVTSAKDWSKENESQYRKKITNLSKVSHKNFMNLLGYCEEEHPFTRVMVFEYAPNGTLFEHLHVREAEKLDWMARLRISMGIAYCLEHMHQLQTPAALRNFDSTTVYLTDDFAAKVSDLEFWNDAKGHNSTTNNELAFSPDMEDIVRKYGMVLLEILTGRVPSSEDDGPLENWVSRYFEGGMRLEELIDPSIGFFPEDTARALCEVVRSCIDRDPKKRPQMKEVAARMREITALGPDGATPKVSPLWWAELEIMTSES

A further assay deals with T2, ZmDRIK1-R187-P492 (Zea mays, UniProt C0P4K9).
T2 construct: kinase domain, R187-P492
T2 sequence (C0P4K9 1-514): T1 sequence (C0P4K9 1-514)

Assay [1] has as its target T3, ZmDRIK1 (DROUGHT RESPONSIVE INACTIVE KINASE 1), kinase domain (Zea mays, UniProt C0P4K9).
T3 construct: gene ZEAMMB73_Zm00001d028770; ZmDRIK1-KD R187-S514 (kinase domain)
T3 sequence (C0P4K9 187-514): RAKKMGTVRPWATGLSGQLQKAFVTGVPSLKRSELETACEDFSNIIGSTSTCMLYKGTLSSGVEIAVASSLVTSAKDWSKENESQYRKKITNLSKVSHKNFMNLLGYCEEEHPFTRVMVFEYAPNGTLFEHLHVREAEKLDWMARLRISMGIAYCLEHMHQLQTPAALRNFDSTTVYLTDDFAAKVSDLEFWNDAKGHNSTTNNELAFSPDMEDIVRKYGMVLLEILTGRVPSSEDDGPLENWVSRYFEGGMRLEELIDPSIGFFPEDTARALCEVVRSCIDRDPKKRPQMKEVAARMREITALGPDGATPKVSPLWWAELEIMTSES

The target in a further assay is T4, ZmDRIK1-K217-P492 (Zea mays, UniProt C0P4K9).
T4 construct: kinase domain, K217-P492
T4 sequence (C0P4K9 1-514): T1 sequence (C0P4K9 1-514)

Setting [2] is: read-out: dTm B, sheet ZmDRIK1-K217-S514;, DSF, Boltzmann fit, 0.1% DMSO.
[3] abbreviates: read-out: dTm B, DSF, Boltzmann fit, 0.1% DMSO.
The mark [4] stands for this setting: read-out: dTm B, sheet ZmDRIK1-R187-S514;, DSF, Boltzmann fit, 0.1% DMSO.
[5] abbreviates: read-out: dTm B, sheet ZmDRIK1-K217-P492;, DSF, Boltzmann fit, 0.1% DMSO.

The values that follow come from paper PMC7158045 (BMC Plant Biology, 2020).

Like-named read-outs stand apart in the source and are kept apart here.

Regarding `COc1ccc(N(C(=O)Oc2c(C)cccc2C)c2ccnc(Nc3ccc(N4CCN(C)CC4)cc3)n2)c(OC)c1` [WH-4-023], the ΔTm at 10 µM on ZmDRIK1-K217-S514 (read-out: dTm B) was -0.646 °C; on ZmDRIK1-R187-P492 (read-out: dTm B) it was -0.703 °C; in assay [1] (read-out: dTm B), -0.841 °C; on ZmDRIK1-K217-P492 (read-out: dTm B), -0.826 °C.
Take `COc1cc(CCc2cc(NC(=O)c3ccc(N4C[C@@H](C)N[C@@H](C)C4)cc3)n[nH]2)cc(OC)c1` [AZD4547]: the ΔTm at 10 µM came out at 0.296 °C on ZmDRIK1-K217-S514 (setting [2]), 0.421 °C at ZmDRIK1-R187-P492 (setting [3]), 0.239 °C in assay [1] (setting [4]) and 0.194 °C on ZmDRIK1-K217-P492 (setting [5]).
Consider `Cc1nc(N)sc1-c1ccnc(Nc2ccc(N3CCOCC3)cc2)n1` [CYC116], for which the ΔTm at 10 µM on ZmDRIK1-K217-S514 (setting [2]) was -0.183 °C; on ZmDRIK1-R187-P492 (setting [3]) it was 0.313 °C; in assay [1] (setting [4]), -1.14 °C; at ZmDRIK1-K217-P492 (setting [5]), -0.775 °C.
As to `CC(C)(C)NS(=O)(=O)c1cncc(-c2cc(F)c3nc(N)nn3c2)c1` [CZC24832], the ΔTm at 10 µM on ZmDRIK1-K217-S514 (setting [2]) was -0.339 °C; at ZmDRIK1-R187-P492 (setting [3]) it was -0.444 °C; in assay [1] (setting [4]), -0.757 °C; on ZmDRIK1-K217-P492 (setting [5]), -1.04 °C.
Taken in the same sequence, the figures for `COc1ccc(Cl)c(Nc2nc3ccccc3nc2NS(=O)(=O)c2cccc(NC(=O)C(C)(C)N)c2)c1` [XL147] were 0.807 °C, -0.0333 °C, -0.972 °C and 0.134 °C.
As for `NCC(=O)Nc1ccc(-n2nc(C(F)(F)F)cc2-c2ccc3c(ccc4ccccc43)c2)cc1` [OSU-03012 (AR-12)], the ΔTm at 10 µM was 0.388 °C at ZmDRIK1-K217-S514 (setting [2]), -1.36 °C at ZmDRIK1-R187-P492 (setting [3]), -0.382 °C in assay [1] (setting [4]) and -8.69 °C at ZmDRIK1-K217-P492 (setting [5]).
Taken in the same sequence, the figures for `O=C(/C=C/c1ccc(O)c(O)c1)c1ccc(O)cc1O` [Butein] were 0.982 °C, 0.882 °C, 0.686 °C and 1.78 °C.
Taken in the same sequence, the figures for `C[C@@H]1COCCN1c1cc(C2(S(C)(=O)=O)CC2)nc(-c2cccc3[nH]ccc23)n1` [AZ20] were -0.493 °C, -0.0341 °C, -0.953 °C and -0.913 °C.
Consider `N[C@@H]1CCCN(c2c(/C=C3\SC(=O)NC3=O)cccc2-c2ccccc2)C1` [AZD1208], for which the ΔTm at 10 µM was -0.249 °C at ZmDRIK1-K217-S514 (setting [2]), -0.181 °C at ZmDRIK1-R187-P492 (setting [3]), -0.564 °C in assay [1] (setting [4]) and -0.752 °C at ZmDRIK1-K217-P492 (setting [5]).
Taken in the same sequence, the figures for `COc1ccccc1-c1cc(Nc2cccc(CS(N)(=O)=O)c2)ncn1` [LDC000067] were 0.865 °C, 0.533 °C, -0.172 °C and 0.0733 °C.
For `CCn1c(-c2nonc2N)nc2c(C#CC(C)(C)O)ncc(OC[C@H]3CCCNC3)c21` [GSK690693], in that order: -0.204 °C, -0.153 °C, -0.678 °C and -1.08 °C.
Taken in the same sequence, the figures for `CN1CCN(c2cccc(Nc3nc4c(-c5ccc(S(C)(=O)=O)cc5)cccn4n3)c2)CC1` [CEP-33779] were -0.33 °C, -0.284 °C, -0.54 °C and -0.95 °C.
Turning to `COc1cccc2cc(-c3nc([C@H]4CC[C@H](C(=O)O)CC4)n4ncnc(N)c34)[nH]c12` [OSI-027], the ΔTm at 10 µM is -0.417 °C on ZmDRIK1-K217-S514 (setting [2]), -0.418 °C on ZmDRIK1-R187-P492 (setting [3]), -0.416 °C in assay [1] (setting [4]) and -1.03 °C at ZmDRIK1-K217-P492 (setting [5]).
For `CCN1CCN(Cc2ccc(Nc3ncc(F)c(-c4cc(F)c5nc(C)n(C(C)C)c5c4)n3)nc2)CC1` [LY2835219], the ΔTm at 10 µM at ZmDRIK1-K217-S514 (setting [2]) was -0.201 °C; at ZmDRIK1-R187-P492 (setting [3]) it was -0.433 °C; in assay [1] (setting [4]), -0.878 °C; on ZmDRIK1-K217-P492 (setting [5]) it was -0.986 °C.
For `CCS(=O)(=O)Nc1ccc2c(c1)/C(=C(/Nc1ccc(CN3CCCCC3)cc1)c1ccccc1)C(=O)N2` [Hesperadin], in that order: -0.308 °C, -0.086 °C, -0.801 °C and 0.108 °C.
For `O=C1NC(=O)/C(=C/c2ccc(-c3ccc(F)cc3O)o2)S1` [AS-252424], in that order: 1.39 °C, 0.884 °C, 0.389 °C and 1.37 °C.
For the compound `O=C(Nc1cc(C(F)(F)F)cc(C(F)(F)F)c1)c1cc(Cl)ccc1O` [IMD 0354], the ΔTm at 10 µM at ZmDRIK1-K217-S514 (setting [2]) is 1.2 °C; at ZmDRIK1-R187-P492 (setting [3]) it was 0.639 °C; in assay [1] (setting [4]), -0.239 °C; on ZmDRIK1-K217-P492 (setting [5]) it was 0.526 °C.
For the compound `CS(=O)(=O)N1CCc2c(-c3cnc(N)nc3)nc(N3CCOCC3)nc21` [CH5132799], the ΔTm at 10 µM on ZmDRIK1-K217-S514 (setting [2]) is -0.324 °C; on ZmDRIK1-R187-P492 (setting [3]), -0.223 °C; in assay [1] (setting [4]), -0.711 °C; on ZmDRIK1-K217-P492 (setting [5]), -0.608 °C.
On to `c1cncc(CN2CCC(n3ncc4c(N5CCOCC5)nc(-c5ccc6[nH]ccc6c5)nc43)CC2)c1` [WAY-600], for which the ΔTm at 10 µM on ZmDRIK1-K217-S514 (setting [2]) was -0.731 °C; on ZmDRIK1-R187-P492 (setting [3]), -0.498 °C; in assay [1] (setting [4]), -0.643 °C; at ZmDRIK1-K217-P492 (setting [5]), -1.19 °C.
With `N#Cc1c(NC(=O)c2cccc3ccccc23)sc2c1CCCC2` [JNK Inhibitor IX], the ΔTm at 10 µM on ZmDRIK1-K217-S514 (setting [2]) is -0.601 °C; at ZmDRIK1-R187-P492 (setting [3]) it was -0.365 °C; in assay [1] (setting [4]), -1.05 °C; at ZmDRIK1-K217-P492 (setting [5]), -1.09 °C.
Taken in the same sequence, the figures for `O=C(NC1CCNCC1)c1n[nH]cc1NC(=O)c1c(Cl)cccc1Cl` [AT7519] were -0.106 °C, 0.0148 °C, -0.866 °C and 0.0166 °C.
In the case of `COc1ccc(Cl)cc1NC(=O)Nc1cc(C)nc2ccccc12` [PQ 401], the ΔTm at 10 µM at ZmDRIK1-K217-S514 (setting [2]) is -0.394 °C; at ZmDRIK1-R187-P492 (setting [3]), -0.365 °C; in assay [1] (setting [4]) it was -1.59 °C; at ZmDRIK1-K217-P492 (setting [5]) it was -0.962 °C.
For `CC(C)(C)c1cc(NC(=O)Nc2ccc(-c3cn4c(n3)sc3cc(OCCN5CCOCC5)ccc34)cc2)no1` [Quizartinib (AC220)], in that order: -1.21 °C, -3.69 °C, -11.5 °C and -4.77 °C.
As to `C[C@@H]1COC(Nc2ccc3ncnc(Nc4ccc(OCc5nccs5)c(Cl)c4)c3c2)=N1` [Varlitinib], the ΔTm at 10 µM at ZmDRIK1-K217-S514 (setting [2]) was -0.516 °C; on ZmDRIK1-R187-P492 (setting [3]), -0.314 °C; in assay [1] (setting [4]), -0.97 °C; on ZmDRIK1-K217-P492 (setting [5]), -0.993 °C.
Taken in the same sequence, the figures for `Cn1cc(-c2ccc3nnc(Sc4ccc5ncccc5c4)n3n2)cn1` [SGX-523] were -0.351 °C, -0.0185 °C, -0.576 °C and -0.7 °C.
For `COc1cc2ncc(-c3ccccc3)nc2cc1OC` [Tyrphostin AG 1296], in that order: -0.375 °C, -0.166 °C, -0.879 °C and -0.341 °C.
As to `COc1cc(Nc2c(C#N)cnc3cc(OCCCN4CCN(C)CC4)c(OC)cc23)c(Cl)cc1Cl` [Bosutinib (SKI-606)], the ΔTm at 10 µM on ZmDRIK1-K217-S514 (setting [2]) is -0.473 °C; at ZmDRIK1-R187-P492 (setting [3]) it was -0.491 °C; in assay [1] (setting [4]) it was -0.814 °C; on ZmDRIK1-K217-P492 (setting [5]), -1.46 °C.
`Cc1ccccc1CN1C(=O)C2=C(CCN(Cc3ccccc3)C2)N2CCN=C12` [TIC10]: the ΔTm at 10 µM at ZmDRIK1-K217-S514 (read-out: dTm B) was -0.395 °C; at ZmDRIK1-R187-P492 (read-out: dTm B) it was -0.155 °C; in assay [1] (read-out: dTm B) it was -0.768 °C; at ZmDRIK1-K217-P492 (read-out: dTm B) it was 0.685 °C.
